Where a name gives a salt, the structure may show the parent alone. Read-outs that look alike come from different tables or passages of the source.

Common to all, as to type: biochemical
For one experiment, the target named is TYK2 (Homo sapiens, UniProt P29597). Put plainly: TYK2 kinase inhibition (Table A1).
Experiment [1] concerns the target T1, human JAK1 (a.a. 837-1142) (Homo sapiens, UniProt P23458).
T1 construct: human JAK1 (a.a. 837-1142); His tag (N); made in house; host or cells: insect cells (baculovirus)
Put plainly: In vitro JAK kinase assay (HTRF, phosphorylation of a biotinylated peptide), JAK1. As to conditions: read-out: JAK1 IC50. The gist of the method:
(§1)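 Phosphorylation of a biotinylated peptide by the JAK kinase domain, detected by HTRF with Eu-Py20 and SA-APC. ATP was 90 μM for JAK1, 30 μM for JAK2 and 3 μM for JAK3. Reactions ran 1 h at room temperature and were stopped with EDTA, followed by 40 min antibody binding.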
In general terms: TR-FRET usually uses a lanthanide donor and a delayed reading to cut background.

For experiment [2], the target named is T2, human JAK2 (a.a. 828-1132) (Homo sapiens, UniProt O60674).
T2 construct: JAK2 (a.a. 828-1132); His tag (N); made in house; host or cells: insect cells (baculovirus)
Put plainly: In vitro JAK kinase assay (HTRF, phosphorylation of a biotinylated peptide), JAK2. The procedure, abridged: as §1

The target of experiment [3] is T3, human JAK3 (a.a. 781-1124) (Homo sapiens, UniProt P52333).
T3 construct: JAK3 (a.a. 781-1124); His tag (N); made in house; host or cells: insect cells (baculovirus)
Put plainly: In vitro JAK kinase assay (HTRF, phosphorylation of a biotinylated peptide), JAK3. The procedure, abridged: as §1

T1 sequence (P23458 849-1154): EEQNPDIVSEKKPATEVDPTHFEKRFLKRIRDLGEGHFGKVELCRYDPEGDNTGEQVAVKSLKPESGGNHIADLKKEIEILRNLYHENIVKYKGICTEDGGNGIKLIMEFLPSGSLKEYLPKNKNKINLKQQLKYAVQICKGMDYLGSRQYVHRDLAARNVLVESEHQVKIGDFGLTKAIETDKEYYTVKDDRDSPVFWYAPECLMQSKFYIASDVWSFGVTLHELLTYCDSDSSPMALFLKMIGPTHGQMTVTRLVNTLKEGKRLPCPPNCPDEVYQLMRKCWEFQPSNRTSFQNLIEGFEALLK
T3 sequence (P52333 781-1124): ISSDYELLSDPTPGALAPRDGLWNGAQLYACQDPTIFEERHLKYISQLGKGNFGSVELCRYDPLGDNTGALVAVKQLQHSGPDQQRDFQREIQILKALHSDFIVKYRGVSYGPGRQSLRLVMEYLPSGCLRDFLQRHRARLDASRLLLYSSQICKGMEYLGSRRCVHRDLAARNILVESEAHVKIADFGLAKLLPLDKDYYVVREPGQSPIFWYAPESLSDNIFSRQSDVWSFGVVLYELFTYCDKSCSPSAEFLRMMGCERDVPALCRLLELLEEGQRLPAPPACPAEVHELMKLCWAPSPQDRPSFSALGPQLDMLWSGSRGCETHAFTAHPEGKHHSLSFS
T2 sequence (O60674 828-1132): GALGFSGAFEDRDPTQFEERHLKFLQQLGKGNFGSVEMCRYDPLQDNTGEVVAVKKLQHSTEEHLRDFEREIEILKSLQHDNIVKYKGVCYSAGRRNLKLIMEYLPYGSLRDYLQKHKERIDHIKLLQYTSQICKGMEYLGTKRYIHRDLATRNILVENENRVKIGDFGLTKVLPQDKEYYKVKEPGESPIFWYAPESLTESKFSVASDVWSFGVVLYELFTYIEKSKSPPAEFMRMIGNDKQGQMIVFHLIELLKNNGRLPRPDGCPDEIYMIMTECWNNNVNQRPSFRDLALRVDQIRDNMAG
Chain of TYK2 (P29597 whole entry): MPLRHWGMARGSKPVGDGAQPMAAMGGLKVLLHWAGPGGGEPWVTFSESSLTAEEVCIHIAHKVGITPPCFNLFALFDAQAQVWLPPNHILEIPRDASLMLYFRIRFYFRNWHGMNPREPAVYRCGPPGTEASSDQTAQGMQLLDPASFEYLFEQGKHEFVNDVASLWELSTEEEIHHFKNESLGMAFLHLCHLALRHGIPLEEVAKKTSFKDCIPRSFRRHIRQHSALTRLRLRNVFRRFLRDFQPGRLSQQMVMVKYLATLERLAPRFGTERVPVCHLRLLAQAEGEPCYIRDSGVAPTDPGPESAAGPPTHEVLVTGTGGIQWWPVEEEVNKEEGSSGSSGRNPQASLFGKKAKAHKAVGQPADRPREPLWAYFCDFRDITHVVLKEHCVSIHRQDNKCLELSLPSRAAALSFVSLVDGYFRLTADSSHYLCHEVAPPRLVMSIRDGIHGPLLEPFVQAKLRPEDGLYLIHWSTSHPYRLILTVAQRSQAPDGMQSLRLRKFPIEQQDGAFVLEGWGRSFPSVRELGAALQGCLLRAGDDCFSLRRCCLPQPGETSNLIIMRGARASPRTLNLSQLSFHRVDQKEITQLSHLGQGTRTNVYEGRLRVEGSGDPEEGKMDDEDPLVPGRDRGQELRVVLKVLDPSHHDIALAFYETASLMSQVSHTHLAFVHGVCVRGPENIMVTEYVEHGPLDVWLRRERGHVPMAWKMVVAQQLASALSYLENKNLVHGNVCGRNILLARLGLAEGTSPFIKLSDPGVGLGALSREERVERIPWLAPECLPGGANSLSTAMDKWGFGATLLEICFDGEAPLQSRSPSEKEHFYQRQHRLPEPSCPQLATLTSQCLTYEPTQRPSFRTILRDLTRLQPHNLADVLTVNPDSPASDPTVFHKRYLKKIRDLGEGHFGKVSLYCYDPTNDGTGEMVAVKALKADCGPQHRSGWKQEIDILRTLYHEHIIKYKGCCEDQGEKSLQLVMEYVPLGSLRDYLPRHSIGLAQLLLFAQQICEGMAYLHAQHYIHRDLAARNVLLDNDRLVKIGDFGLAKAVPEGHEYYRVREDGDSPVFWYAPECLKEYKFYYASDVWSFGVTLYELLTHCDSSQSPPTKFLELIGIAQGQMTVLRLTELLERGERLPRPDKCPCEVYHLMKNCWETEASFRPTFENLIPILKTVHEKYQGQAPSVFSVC

Usually IC50 stands for the concentration that inhibits the measured activity by half. With `O=C(Nc1ccccc1F)N1CCC(CCOc2ccc3cc2CCc2cncc(c2)Nc2ncc(Cl)c(n2)N3)CC1` [Example D170, 4-(2-{[6-Chloro-2,4,8,18,22-pentaazatetracyclo[14.3.1.1(3,7).1(9,13)]docosa-1(20),3(22),4,6,9(21),10,12,16,18-nonaen-12-yl]oxy}ethyl)-N-(2-fluorophenyl)piperidine-1-carboxamide bis(trifluoroacetate)], the IC50 at TYK2 (Table D1) was > 400 nM; in experiment [1] (Table D1), 23 nM; in experiment [2] (Table D1), 130 nM; in experiment [3] (Table D1) it was > 400 nM.

With `O=C(CC1CN(c2ccccn2)C1)Nc1ccc2cc1CCc1cncc(c1)Nc1ncc(Cl)c(n1)N2` [Example D153, N-[6-Chloro-2,4,8,18,22-pentaazatetracyclo[14.3.1.1(3,7).1(9,13)]docosa-1(20),3(22),4,6,9(21),10,12,16,18-nonaen-12-yl]-2-(1-pyridin-2-ylazetidin-3-yl)acetamide tris(trifluoroacetate)], the IC50 against TYK2 (Table D1) was > 400 nM; in experiment [1] (Table D1) it was 30 nM; in experiment [2] (Table D1) it was 150 nM; in experiment [3] (Table D1), > 400 nM.

For the compound `COC(=O)Cn1c(=O)oc2c3cc(cc21)Nc1nc(ncc1Cl)Nc1cccc(c1)CC3` [Example D183, Methyl [4-chloro-19-oxo-18-oxa-2,6,8,20,25-pentaazapentacyclo[14.6.1.1(3,7).1(9,13).0(17,21)]pentacosa-1(23),3(25),4,6,9(24),10,12,16,21-nonaen-20-yl]acetate trifluoroacetate], the IC50 against TYK2 (Table D1) was 166 nM; in experiment [1] (Table D1), 12 nM; in experiment [2] (Table D1), 22 nM; in experiment [3] (Table D1), 64 nM.

In the case of `O=C(CC1CN(C(=O)c2nc[nH]n2)C1)Nc1ccc2cc1CCc1cncc(c1)Nc1ncc(Cl)c(n1)N2` [Example D147, N-[6-Chloro-2,4,8,18,22-pentaazatetracyclo[14.3.1.1(3,7).1(9,13)]docosa-1(20),3(22),4,6,9(21),10,12,16,18-nonaen-12-yl]-2-[1-(1H-1,2,4-triazol-3-ylcarbonyl)azetidin-3-yl]acetamide bis(trifluoroacetate)], the IC50 on TYK2 (Table D1) is 401 nM; in experiment [1] (Table D1), 26 nM; in experiment [2] (Table D1) it was 85 nM; in experiment [3] (Table D1), > 1000 nM.

With `N#Cc1ccc(NC(=O)N2CCC(C(=O)Nc3ccc4cc3CCc3cccc(c3)Nc3ncc(Cl)c(n3)N4)CC2)cc1` [Example A37, N(4)-[6-Chloro-2,4,8,22-tetraazatetracyclo[14.3.1.1(3,7).1(9,13)]docosa-1(20),3(22),4,6,9(21),10,12,16,18-nonaen-12-yl]-N(1)-(4-cyanophenyl)piperidine-1,4-dicarboxamide trifluoroacetate], the IC50 against TYK2 turned out to be 21 nM; in experiment [1] (method AA1 (90 μM ATP) or AA2 (1000 μM ATP), not stated per value) it was 9 nM; in experiment [2] (method AA1 (30 μM ATP) or AA2 (1000 μM ATP), not stated per value), 11 nM; in experiment [3] (method AA1 (3 μM ATP) or AA2 (1000 μM ATP), not stated per value), 24 nM.

On to `Clc1cnc2nc1Nc1ccc(N3CCNCC3)c(c1)CCc1cccc(c1)N2` [Example D83, 6-Chloro-12-piperazin-1-yl-2,4,8,22-tetraazatetracyclo[14.3.1.1(3,7).1(9,13)]docosa-1(20),3(22),4,6,9(21),10,12,16,18-nonaene bis(trifluoroacetate)], for which the IC50 at TYK2 (Table D1) stood at 129 nM; in experiment [1] (Table D1), 126 nM; in experiment [2] (Table D1), 26 nM; in experiment [3] (Table D1), 57 nM.

As for `O=C(CC1CN(C(=O)c2cn[nH]c2)C1)Nc1ccc2cc1CCc1cncc(c1)Nc1ncc(Cl)c(n1)N2` [Example D149, N-[6-Chloro-2,4,8,18,22-pentaazatetracyclo[14.3.1.1(3,7).1(9,13)]docosa-1(20),3(22),4,6,9(21),10,12,16,18-nonaen-12-yl]-2-[1-(1H-pyrazol-4-ylcarbonyl)azetidin-3-yl]acetamide bis(trifluoroacetate)], the 50% inhibitory concentration (IC50) against TYK2 (Table D1) is 170 nM; in experiment [1] (Table D1), 18 nM; in experiment [2] (Table D1) it was 94 nM; in experiment [3] (Table D1), > 1000 nM.

With `Cc1cc(C(=O)N2CCN(C(=O)COc3ccc4cc3CCc3cncc(c3)Nc3ncc(Cl)c(n3)N4)CC2)n[nH]1` [Example D266, 6-Chloro-12-(2-{4-[(5-methyl-1H-pyrazol-3-yl)carbonyl]piperazin-1-yl}-2-oxoethoxy)-2,4,8,18,22-pentaazatetracyclo[14.3.1.1(3,7).1(9,13)]docosa-1(20),3(22),4,6,9(21),10,12,16,18-nonaene tris(trifluoroacetate)], the IC50 against TYK2 (Table D1) is > 400 nM; in experiment [1] (Table D1) it was 31 nM; in experiment [2] (Table D1) it was 21 nM; in experiment [3] (Table D1), > 400 nM.

Take `Cc1[nH]c2ccccc2c1CC(=O)Nc1ccc2cc1CCc1cccc(c1)Nc1ncc(Cl)c(n1)N2` [Example C34, N-[6-Chloro-2,4,8,22-tetraazatetracyclo[14.3.1.1(3,7).1(9,13)]docosa-1(20),3(22),4,6,9(21),10,12,16,18-nonaen-12-yl]-2-(2-methyl-1H-indol-3-yl)acetamide trifluoroacetate]: the IC50 worked out at 775 nM on TYK2, 265 nM in experiment [1], 178 nM in experiment [2] and 4000 nM in experiment [3].

Take `O=C(COc1ccc2cc1CCc1cncc(c1)Nc1ncc(Cl)c(n1)N2)N1CCC(c2nc(-c3cccs3)no2)CC1` [Example D258, 6-Chloro-12-(2-oxo-2-{4-[3-(2-thienyl)-1,2,4-oxadiazol-5-yl]piperidin-1-yl}ethoxy)-2,4,8,18,22-pentaazatetracyclo[14.3.1.1(3,7).1(9,13)]docosa-1(20),3(22),4,6,9(21),10,12,16,18-nonaene bis(trifluoroacetate)]: the IC50 is > 400 nM against TYK2 (Table D1), 70 nM in experiment [1] (Table D1), 113 nM in experiment [2] (Table D1) and > 400 nM in experiment [3] (Table D1).

On to `N#Cc1ccc(NC(=O)N2CCN(c3ccc4cc3CCc3cccc(c3)Nc3ncc(Cl)c(n3)N4)CC2)cc1` [Example D93, 4-[6-Chloro-2,4,8,22-tetraazatetracyclo[14.3.1.1(3,7).1(9,13)]docosa-1(20),3(22),4,6,9(21),10,12,16,18-nonaen-12-yl]-N-(4-cyanophenyl)piperazine-1-carboxamide bis(trifluoroacetate)], for which the IC50 on TYK2 (Table D1) was found to be 71 nM; in experiment [1] (Table D1), 46 nM; in experiment [2] (Table D1), 14 nM; in experiment [3] (Table D1), 69 nM.

For `Cc1ccc(C(=O)N2Cc3cccc(c3)Nc3ncc(Cl)c(n3)Nc3cccc2c3)cc1` [Example C24, 6-Chloro-14-(4-methylbenzoyl)-2,4,8,14,22-pentaazatetracyclo[14.3.1.1(3,7).1(9,13)]docosa-1(20),3(22),4,6,9(21),10,12,16,18-nonaene], the IC50 is 1030 nM against TYK2, 95 nM in experiment [1], 154 nM in experiment [2] and 1200 nM in experiment [3].

Consider `Cn1cc(C(=O)N2CC(CC(=O)Nc3ccc4cc3CCc3cncc(c3)Nc3ncc(Cl)c(n3)N4)C2)cn1` [Example D142, N-[6-Chloro-2,4,8,18,22-pentaazatetracyclo[14.3.1.1(3,7).1(9,13)]docosa-1(20),3(22),4,6,9(21),10,12,16,18-nonaen-12-yl]-2-{1-[(1-methyl-1H-pyrazol-4-yl)carbonyl]azetidin-3-yl}acetamide bis(trifluoroacetate)], for which the IC50 on TYK2 (Table D1) is 193 nM; in experiment [1] (Table D1), 37 nM; in experiment [2] (Table D1), 144 nM; in experiment [3] (Table D1) it was > 1000 nM.

The values above are taken from US8871753B2, “Macrocyclic compounds and their use as kinase inhibitors” (Incyte Corporation, priority 2008, dated 2014).
